Laboratory results as given in patent publication US20220227765A1, “PYRIDO-INDOLE ANALOGUES AS GPX4 INHIBITORS” (Ferro Therapeutics, Inc., priority 2019, published 2022).
In brackets after ≈: the same amount, converted by molar mass. Like-named read-outs stand apart in the source and are kept apart here.

Assays:
Human blood stability = type: in vitro ADME
[1] = Rat IV pharmacokinetics (2 mg/kg); type: in vivo; conditions: male, SD, plasma; for clearance: read-out: Rat IV-PK CL; for AUC(0-t): read-out: Rat IV-PK AUC (0-t); for half-life: read-out: Rat IV-PK T1/2; for Vd: read-out: Rat IV-PK Vd
Text: Institutional Animal Ethical Committee (IAEC) of Jubilant Biosys (IAEC/JDC/2019/188R (for Mice) and IAEC/JDC/2019/189R (for Rat) nominated by CPCSEA (Committee for the Purpose of Control and Supervision of Experiments on Animals) approved the mice and rat pharmacokinetic experiments. Male Balb/c mice (˜6-8 weeks old with body weight range of 22-25 g) and male SD rats (6-8 weeks old with body weight range of 200-250 g) were procured from Vivo Biotech, Hyderabad, India. Animals were quarantined in Jubilant Biosys Animal House for a period of 7 days with a 12:12 h light: dark cycles, and prior to the study the animals were stratified as per body weight.
B) Procedure for rat: Intravenous and oral pharmacokinetics study was done at a dose 2 and 10 mg/kg at dose volume of 2 and 10 mL/Kg. Serial blood sampling was done and at each time point (˜200 μL) were collected from retro-orbital plexus at 0.083 (Only for IV), 0.25, 0.5, 1, 2, 4, 8, 10 (only for PO) and 24 h. Blood samples were collected in tubes containing K2.EDTA as anticoagulant and centrifuged for 5 min at 10,000 rpm in a refrigerated centrifuge (Biofuge, Heraeus, Germany) maintained at 4° C. for plasma separation.
Group I (IV) received test compound intravenously by tail vein at 2 mg/Kg in solution formulation prepared using 30% Kolliphore EL in WFI; dose volume: 2 mL/Kg; strength: 1 mg/mL.
Blood concentration-time data of test compound was analyzed by non-compartmental method using Phoenix WinNonlin Version 8.1.

[2] = Kinetic solubility (PBS, pH 7.4); type: physicochemical; conditions: aqueous buffer, kinetic from dmso stock
A431 = experiment: Cell proliferation (Alamar Blue) assay, A431; type: cell-based, human; conditions: Homo sapiens, A-431, 24 h
Summary of the method: (§1)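 Alamar Blue fluorescence (540 nm excitation, 590 nm emission, 1.5 h reagent incubation) measured viability after 24 h compound exposure at 37° C./5% CO2. Compounds spanned 10-0.0005 μM in 3-fold steps with 1% final DMSO, on cells pre-seeded 16-24 h at 5000/well. IC50 values were derived by variable-slope dose-response fitting.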

SJSA-1 = experiment: Cell proliferation (Alamar Blue) assay, SJSA-1; type: cell-based, human
Summary of the method: as §1

786-O = experiment: Cell proliferation (Alamar Blue) assay, 786-O; type: cell-based, human
Summary of the method: as §1

[3] = CD-1 Mouse Whole Blood Stability Assay; type: in vitro ADME; conditions: incubation at 37° C.
[4] = Mouse plasma protein % unbound (ultracentrifuge method); type: in vitro ADME; conditions: for fraction unbound at 4 h: mouse, plasma; for Mouse Plasma Protein % Unbound (Ultracentrifuge method, 4 h at 37° C.): Table B-6
[5] = Equilibrium solubility at different pHs and with SBECD; type: physicochemical; conditions: thermodynamic from solid
[6] = Rat hepatocyte metabolic stability; type: in vitro ADME; conditions: for half-life / hepatocyte CLint: rat hepatocytes; for half-life: read-out: rat hepatocytes T1/2; for hepatocyte CLint: read-out: rat hepatocytes h Clintr (μL/min/10^6 cells)
[7] = Human hepatocyte metabolic stability; type: in vitro ADME; conditions: for half-life / hepatocyte CLint: human hepatocytes; for half-life: read-out: human hepatocytes T1/2; for hepatocyte CLint: read-out: human hepatocytes h Clintr (μL/min/10^6 cells)
[8] = Homo sapiens, SJSA-1, 24 h, Table B-3, head prints SJSB-1, 24 h, read-out: IC50 (μM) SJSB-1
[9] = Homo sapiens, 786-0, 24 h, Table B-3, 786-O cells
[10] = aqueous buffer, pH 3.0 PBS buffer, read-out: Eq. solubility pH 3.0 PBS buffer
[11] = aqueous with cosolvent or surfactant or cyclodextrin, 20% SBECD (sulfobutyl ether cyclodextrin), read-out: Eq. solubility 20% SBECD

SMILES	solubility kinetic ([2]; Table B-4) [µM]	IC50 (A431; Table B-3, A431 cells) [µM]	IC50 (SJSA-1; [8]) [µM]	IC50 (786-O; [9]) [µM]	CD-1 Mouse Whole Blood Stability % Remaining ([3]; Table B-6, 0 min) [%]	CD-1 Mouse Whole Blood Stability % Remaining ([3]; Table B-6, 30 min) [%]	CD-1 Mouse Whole Blood Stability % Remaining ([3]; Table B-6, 60 min) [%]	Mouse Plasma Protein % Unbound (Ultracentrifuge method, 4 h at 37° C.) [4]	also measured
C#CC(=O)N1[C@@H](CCCC)Cc2c([nH]c3ccccc23)[C@@H]1c1ccc(C(=O)NCCOC)cc1 [Compound B-3, 4-((1S,3S)-3-butyl-2-propioloyl-2,3,4,9-tetrahydro-1H-pyrido[3,4-b]indol-1-yl)-N-(2-methoxyethyl)benzamide]	4 (≈ 1.83 µg/mL)	4.7	0.018	0.009	–	–	–	–	human blood stability % remaining (Human blood stability; 15 min): 90%_15; human blood stability % remaining (Human blood stability; 30 min): 55%_30; human blood stability % remaining (Human blood stability; 45 min): 36%_45; human blood stability % remaining (Human blood stability; 60 min): 22%_60; human blood stability % remaining (Human blood stability; 120 min): 1.5%_120; clearance [1]: 348 mL/min/kg
C#CC(=O)N1[C@@H](CCCC)Cc2c([nH]c3c(F)cc(F)cc23)[C@@H]1C12CC(N)(C1)C2.Cl [Compound B-22]	–	5.3	0.047	0.031	100.0	70.3	55.0	–	fraction unbound at 4 h ([4]; Table B-6, 4 h at 37° C.): 0.037
C#CC(=O)N1[C@@H](CCCC)Cc2c([nH]c3c(F)cc(F)cc23)[C@@H]1c1cncs1 [Compound B-23]	–	> 10	0.431	0.507	100.0	4.0	0.5	Not stable	–
C#CC(=O)N1[C@@H](CCCC)Cc2c([nH]c3c(F)cc(F)cc23)[C@@H]1C1CCNCC1.Cl [Compound B-26]	–	7.5	0.08	0.177	100.0	44.7	26.7	–	fraction unbound at 4 h ([4]; Table B-6, 4 h at 37° C.): 0.061
CCCC[C@H]1Cc2c([nH]c3c(F)cc(F)cc23)[C@H](c2ccc(N3CCN(C)CC3)c(C#N)c2)N1C(=O)CCl [Compound B-27]	< 1	2	0.005	0.005	100.0	78.0	72.7	–	human blood stability % remaining (Human blood stability; 15 min): 38%_15; human blood stability % remaining (Human blood stability; 30 min): 4%_30; human blood stability % remaining (Human blood stability; 45 min): 1%_45; human blood stability % remaining (Human blood stability; 60 min): 0%_60; human blood stability % remaining (Human blood stability; 120 min): 0%_120; fraction unbound at 4 h ([4]; Table B-6, 4 h at 37° C.): 0.078
C#CC(=O)N1[C@@H](CCCC)Cc2c([nH]c3c(F)cc(F)cc23)[C@@H]1c1ccc(C2COC2)cc1 [Compound B-29]	–	> 10	0.037	0.034	100.0	18.0	3.9	Not stable	–
C#CC(=O)N1[C@@H](CCCC)Cc2c([nH]c3c(F)cc(F)cc23)[C@@H]1c1cccnc1 [Compound B-30]	–	> 10	0.052	0.03	100.0	1.9	0.5	Not stable	solubility kinetic ([2]; Table B-7): < 1 µM; solubility ([5]; aqueous buffer, pH 3.0, read-out: Eq. solubility pH 3.0): 700 µg/mL (≈ 1780 µM); solubility [5, 10]: 490 µg/mL (≈ 1250 µM); solubility [5, 11]: 240 µg/mL (≈ 610 µM)
C#CC(=O)N1[C@@H](CCCC)Cc2c([nH]c3c(F)cc(F)cc23)[C@@H]1c1ccnn1C [Compound B-34]	–	7.6	0.074	0.041	100.0	9.4	1.1	Not stable	solubility kinetic ([2]; Table B-7): 11 µM (≈ 4.36 µg/mL); solubility [5, 10]: < 1 µg/mL; solubility [5, 11]: > 1010 µg/mL
O=C(CCl)N1[C@@H](CC2CC2)Cc2c([nH]c3ccccc23)[C@@H]1c1ccc(NC23CC4CC(CC(C4)C2)C3)cc1 [Compound B-36]	< 1	6.7	0.001	0.001	–	–	–	–	human blood stability % remaining (Human blood stability; 15 min): ~100%_15; human blood stability % remaining (Human blood stability; 30 min): 96%_30; human blood stability % remaining (Human blood stability; 45 min): 82%_45; human blood stability % remaining (Human blood stability; 60 min): 77%_60; human blood stability % remaining (Human blood stability; 120 min): 51%_120; AUC(0-t) [1]: 431 ng·h/mL; clearance [1]: 87 mL/min/kg; half-life [1]: 30 min; Vd [1]: 3.5 L/kg; rat hepatocytes extr. Ratio [6]: 0.7; rat hepatocytes % met @ 180 min [6]: 72%; half-life [6]: 107 min; hepatocyte CLint [6]: 26 µL/min/1e6 cells; human hepatocytes extr. Ratio [7]: 0.13; human hepatocytes % met @ 180 min [7]: 3.5%; half-life [7]: 2460 min; hepatocyte CLint [7]: 1.1 µL/min/1e6 cells
C#CC(=O)N1[C@@H](CC2CC2)Cc2c([nH]c3ccccc23)[C@@H]1c1ccc(NC23CC4CC(CC(C4)C2)C3)cc1 [Compound B-37]	< 1	4.6	0.004	0.001	–	–	–	–	AUC(0-t) [1]: 346 ng·h/mL; clearance [1]: 115 mL/min/kg; half-life [1]: 198 min; Vd [1]: 32 L/kg; rat hepatocytes extr. Ratio [6]: 0.64; rat hepatocytes % met @ 180 min [6]: 74%; half-life [6]: 137 min; hepatocyte CLint [6]: 20 µL/min/1e6 cells; human hepatocytes extr. Ratio [7]: 0.58; human hepatocytes % met @ 180 min [7]: 38%; half-life [7]: 270 min; hepatocyte CLint [7]: 10 µL/min/1e6 cells
C[C@H]1Cc2c([nH]c3ccccc23)[C@](C)(c2ccc(F)cc2)N1C(=O)CCl [Compound C-38]	–	–	–	–	–	–	–	–	IC50 (A431; Table C-3, A431 cells): 2.95 µM; CD-1 Mouse Whole Blood Stability % Remaining ([3]; Table C-4, 0 min): 100.0%; CD-1 Mouse Whole Blood Stability % Remaining ([3]; Table C-4, 30 min): 74.4%; CD-1 Mouse Whole Blood Stability % Remaining ([3]; Table C-4, 60 min): 61.0%; fraction unbound at 4 h ([4]; Table C-4, 4 h at 37° C.): 0.105; IC50 (SJSA-1; Table C-3, SJSA-1 cells, 24 h, read-out: IC50 (μM) SJSA-1): 0.332 µM; IC50 (786-O; Table C-3, 786-O cells, 24 h): 0.437 µM
